14 compounds from ChEMBL document CHEMBL1136158, “Effect of the acyl groups on O-->N acyl migration in the water-soluble prodrugs of HIV-1 protease inhibitor” (Bioorg Med Chem Lett, 2003) can be followed below.

A short description of data set [1]: Time required for 50% release of parent drug in phosphate buffered saline (PBS) at 37 degrees Centigrade. The data set is classed as ADME. The conditions noted are these: buffer.
Data set [2] in a line: Solubility ratio of prodrug versus parent drug. The data set is classed as physicochemical.
A short description of data set [3]: physchem.
A short description of data set [4]: Dissociation constant was determined. The data set is classed as physicochemical.

Usually solubility stands for the dissolved amount per volume that the medium holds. As a reminder, the pKa is the pH at which an ionisable group is half protonated. Read a low pKa as a group that gives up its proton readily.

Values after ≈ are worked out from the molar mass of the structure shown.

On to `COc1ccc(C(=O)O[C@H](C(=O)N2CSC(C)(C)[C@H]2C(=O)NC(C)(C)C)[C@@H](N)Cc2ccccc2)cc1.Cl`, for which the T1/2 in data set [1] amounted to 67 min. Moreover, the Solubility ratio in data set [2] amounted to 211. In addition, in data set [3], the concentration in solution (solubility) was 16000 µg/mL.

As for `CC(C)(C)NC(=O)[C@H]1N(C(=O)[C@@H](O)[C@H](Cc2ccccc2)NC(=O)c2ccc([N+](=O)[O-])cc2)CSC1(C)C`, in data set [3], the concentration in solution (solubility) was 57 µg/mL (≈ 105 µM).

In the case of `CC(C)(C)NC(=O)[C@H]1N(C(=O)[C@@H](OC(=O)Cc2ccccc2)[C@@H](N)Cc2ccccc2)CSC1(C)C.Cl`, the T1/2 in data set [1] was 2.2 min. For the same compound, the Solubility ratio in data set [2] was determined as 340. Further, the solubility in data set [3] was determined as 33000 µg/mL. This compound also came in with a pKa in data set [4] of 4.31.

Regarding `CC(C)(C)NC(=O)[C@H]1N(C(=O)[C@@H](O)[C@H](Cc2ccccc2)NC(=O)Cc2ccccc2)CSC1(C)C`, the solubility in data set [3] was determined as 97 µg/mL (≈ 190 µM).

As to `CC(C)(C)NC(=O)[C@H]1N(C(=O)[C@@H](OC(=O)c2ccccc2)[C@@H](N)Cc2ccccc2)CSC1(C)C.Cl`, the T1/2 in data set [1] amounted to 30 min. Further, the Solubility ratio in data set [2] came to 125. In addition, in data set [3], the concentration in solution (solubility) came to 15000 µg/mL. The pKa in data set [4] is 4.2.

As for `Cc1ccc(C(=O)O[C@H](C(=O)N2CSC(C)(C)[C@H]2C(=O)NC(C)(C)C)[C@@H](N)Cc2ccccc2)cc1.Cl`, the T1/2 in data set [1] is recorded as 44 min. Moreover, in data set [2], the Solubility ratio was determined as 155. In addition, the solubility in data set [3] was found to be 6200 µg/mL.

Consider `CC(C)(C)NC(=O)[C@H]1N(C(=O)[C@@H](OC(=O)c2ccc(Cl)cc2)[C@@H](N)Cc2ccccc2)CSC1(C)C.Cl`, for which the T1/2 in data set [1] stood at 16 min. The Solubility ratio in data set [2] is on record as 154. The compound further returned a solubility in data set [3] of 4300 µg/mL.

In data set [3], `CC(C)(C)NC(=O)[C@H]1N(C(=O)[C@@H](O)[C@H](Cc2ccccc2)NC(=O)c2ccccc2)CSC1(C)C` returned a solubility of 120 µg/mL (≈ 241 µM).

As for `Cc1cccc(C)c1OCC(=O)O[C@H](C(=O)N1CSC(C)(C)[C@H]1C(=O)NC(C)(C)C)[C@@H](N)Cc1ccccc1.Cl`, the T1/2 in data set [1] was under 1 min. Besides, the Solubility ratio in data set [2] amounted to 8666. Besides, in data set [3], the solubility was found to be 13000 µg/mL.

Regarding `CC(C)(C)NC(=O)[C@H]1N(C(=O)[C@@H](OC(=O)c2ccc([N+](=O)[O-])cc2)[C@@H](N)Cc2ccccc2)CSC1(C)C.Cl`, in data set [1], the T1/2 came out at 2.6 min. For the same compound, in data set [2], the Solubility ratio is 228. Further, in data set [3], the solubility came out at 13000 µg/mL.

As for `CC(C)(C)NC(=O)[C@H]1N(C(=O)[C@@H](OC(=O)OCc2ccccc2)[C@@H](N)Cc2ccccc2)CSC1(C)C.Cl`, in data set [1], the T1/2 is recorded as under 1 min. In addition, the Solubility ratio in data set [2] was determined as 449. In data set [3], this compound showed a solubility of 21000 µg/mL. In data set [4], this compound came in with a pKa of 3.2.

Compound `COc1ccc(C(=O)N[C@@H](Cc2ccccc2)[C@H](O)C(=O)N2CSC(C)(C)[C@H]2C(=O)NC(C)(C)C)cc1` registered a solubility in data set [3] of 76 µg/mL (≈ 144 µM).

Regarding `CC(C)(C)NC(=O)[C@H]1N(C(=O)[C@@H](O)[C@H](Cc2ccccc2)NC(=O)c2ccc(Cl)cc2)CSC1(C)C`, in data set [3], the solubility worked out at 28 µg/mL (≈ 52.6 µM).

`CC(C)(C)NC(=O)[C@H]1N(C(=O)[C@@H](O)[C@H](Cc2ccccc2)NC(=O)OCc2ccccc2)CSC1(C)C` yielded a solubility in data set [3] of 47 µg/mL (≈ 89.1 µM).
